The record followed here is patent publication US9351965B2, “Indazole derivatives useful as ERK inhibitors” (Merck Sharp & Dohme Corp., priority 2010, dated 2016).

The target in this assay is fully phosphorylated, active Mouse ERK2 protein (Mus musculus (Mouse), UniProt P63085). In words: Active ERK2 (aERK) IMAP assay. Particulars: IMAP fluorescence polarization; 30 μM ATP; 30 minute pre-incubation. The assay is classed as biochemical. The protocol: 14 μl of kinase buffer (10 mM Tris.HCl pH 7.2, 10 mM MgCl2, 0.01% Tween-20, 1 mM DTT) containing 0.4 ng unphosphorylated Mouse ERK2 protein was added to each well of a black 384-well assay plate. […] DMSO concentration during initial incubation is 6.7%. […] DMSO concentration during ERK activation was 4%. After one hour, reactions were terminated by addition of 60 μl IMAP detections beads in binding buffer (Molecular Devices). Binding was allowed to equilibrate for 30 minutes before reading the plate on an LJL Analyst Fluorescence Polarization plate reader.
fully phosphorylated, active Mouse ERK2 protein, sequence (P63085 whole entry): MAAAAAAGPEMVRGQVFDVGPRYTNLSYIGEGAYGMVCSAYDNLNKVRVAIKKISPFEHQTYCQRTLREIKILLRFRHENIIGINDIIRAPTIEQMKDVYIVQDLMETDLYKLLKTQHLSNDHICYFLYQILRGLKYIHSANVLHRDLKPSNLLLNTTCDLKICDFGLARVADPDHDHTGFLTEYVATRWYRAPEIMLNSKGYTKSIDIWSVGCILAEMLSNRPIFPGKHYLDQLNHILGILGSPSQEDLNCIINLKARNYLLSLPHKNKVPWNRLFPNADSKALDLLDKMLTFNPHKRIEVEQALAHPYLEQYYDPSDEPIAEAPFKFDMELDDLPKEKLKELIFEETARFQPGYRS
Active ERK2 (aERK) Assay:
Activated ERK2 activity was also determined in the IMAP assay format using the procedure outlined above. […] Reactions proceeded for 30 minutes before termination by addition of 60 μl IMAP detection beads in binding buffer. Plates were read as above after 30 minute binding equilibration.
In general, IC50 refers to the midpoint of a concentration-inhibition curve. High values mean lower potency, low ones higher potency. As to `Cc1cc(-c2n[nH]c3ccc(C(=O)NC4CCCC(Oc5ccccc5Cl)C4)cc23)ccn1` (single isomer, unassigned) [compound 34, N-[3-(2-chlorophenoxy)cyclohexyl]-3-(2-methyl-4-pyridinyl)-1H-indazole-5-carboxamide], it took 198 nM to reach half-maximal inhibition (IC50).
Take `Cc1cc(-c2n[nH]c3ccc(C(=O)NC4CCCC(CO)(Oc5cccc(F)c5)C4)cc23)ccn1` (single isomer, unassigned) [compound 43, N-[3-(3-fluorophenoxy)-3-(hydroxymethyl)cyclohexyl]-3-(2-methyl-4-pyridinyl)-1H-indazole-5-carboxamide]: the IC50 worked out at 13.4 nM.
To `Cc1cc(-c2n[nH]c3ccc(C(=O)NC4CCCC(Cn5c(=O)ccc6ccccc65)C4)cc23)ccn1` (centres unmarked) [compound 121, 3-(2-methyl-4-pyridinyl)-N-[3-[(2-oxo-1(2h)-quinolinyl)methyl]cyclohexyl]-1H-indazole-5-carboxamide] belongs 37.2 nM; to `Cc1cc(-c2n[nH]c3ccc(C(=O)N[C@@H]4CCC[C@](O)(Cn5c(=O)ccc6ccccc65)C4)cc23)ccn1` (relative stereo) [compound 89, N-[trans-3-hydroxy-3-[(2-oxo-1(2h)-quinolinyl)methyl]cyclohex-yl]-3-(2-methyl-4-pyridinyl)-1H-indazole-5-carboxamide], 714 nM.
To `Cc1cc(-c2n[nH]c3ccc(C(=O)N[C@@H]4CCC[C@@](O)(CN5C(=O)Cc6ccccc65)C4)cc23)ccn1` (relative stereo) [compound 92, N-[cis-3-[(2,3-dihydro-2-oxo-1H-indol-1-yl)methyl]-3-hydroxycyclohexyl]-3-(2-methyl-4-pyridinyl)-1H-indazole-5-carboxamide] belongs 10.8 nM; to `Cc1nc2ccc(-c3n[nH]c4ccc(C(=O)N[C@@H]5CCC[C@](O)(Cc6c(F)cccc6F)C5)cc34)cn2n1` [compound 21, N-[3-(S)-[(2,6-difluorophenyl)methyl]-3-hydroxy-1(R)-cyclohexyl]-3-(2-methyl[1,2,4]triazolo[1,5-a]pyridin-6-yl)-1H-indazole-5-carboxamide], 20.9 nM.
`Cn1cc2cc(-c3n[nH]c4ccc(C(=O)N[C@@H]5CCC[C@@](O)(Cn6cnc7ccccc76)C5)cc34)ccc2n1` (relative stereo) [compound 62, N-[cis-3-(1H-benzimidazol-1-ylmethyl)-3-hydroxycyclohexyl]-3-(2-methyl-2H-indazol-5-yl)-1H-indazole-5-carboxamide] yielded a half-inhibitory concentration (IC50) of 19.9 nM.
In the case of `Cc1cc(-c2n[nH]c3ccc(C(=O)NC4CCCC(N)(Cc5ccccc5F)C4)cc23)ccn1` (centres unmarked) [compound 152, N-[3-amino-3-[(2-fluorophenyl)methyl]cyclohexyl]-3-(2-methyl-4-pyridinyl)-1H-indazole-5-carboxamide], half-maximal inhibition (IC50) was put at 514 nM.
Regarding `Cc1cc(-c2n[nH]c3ccc(C(=O)NN4CCCC(Oc5ccccc5Cl)C4)cc23)ccn1` (centres unmarked) [compound 141, N-[3-(2-chlorophenoxy)-1-piperidinyl]-3-(2-methyl-4-pyridinyl)-1H-indazole-5-carboxamide], half-maximal inhibition (IC50) was put at 84.4 nM.
To `Cc1cc(-c2n[nH]c3ccc(C(=O)NC4CCCC(Oc5c(F)cccc5F)C4)cc23)ccn1` (centres unmarked) [compound 32, N-[3-(2,6-difluorophenoxy)cyclohexyl]-3-(2-methyl-4-pyridinyl)-1H-indazole-5-carboxamide] belongs 573 nM; to `CC(C)Oc1cc(-c2n[nH]c3ccc(C(=O)NN4CCCC4CCc4ccccc4)cc23)ccn1` (centres unmarked) [compound 146, 3-[2-(1-methylethoxy)-4-pyridinyl]-N-[2-(2-phenylethyl)-1-pyrrolidinyl]-1H-indazole-5-carboxamide], 1000 nM; to `Cc1cc(-c2n[nH]c3ccc(C(=O)N[C@@H]4CCC[C@@](O)(Cn5cnc6cccnc65)C4)cc23)ccn1` (relative stereo) [compound 82, N-[cis-3-hydroxy-3-(3H-imidazo[4,5-b]pyridin-3-ylmethyl)cyclohexyl]-3-(2-methyl-4-pyridinyl)-1H-indazole-5-carboxamide], 97.6 nM.
Under `CC(C)Oc1ccc(-c2n[nH]c3ccc(C(=O)N[C@@H]4CCC[C@](O)(Cc5ccccc5F)C4)cc23)cn1` [compound 17, N-[3-(S)-[(2-fluorophenyl)methyl]-3-hydroxy-1(R)-cyclohexyl]-3-[6-(1-methylethoxy)-3-pyridinyl]-1H-indazole-5-carboxamide] stands 44.9 nM.
In turn, `CC(C)Oc1cc(-c2n[nH]c3ccc(C(=O)N[C@@H]4CCC[C@](O)(Cc5ccccc5F)C4)cc23)ccn1` [compound 16, N-[3(S)-[(2-fluorophenyl)methyl]-3-hydroxy-1(R)-cyclohexyl]-3-[2-(1-methylethoxy)-4-pyridinyl]-1H-indazole-5-carboxamide] displayed an IC50 of 301 nM.
`Cn1cc2cc(-c3n[nH]c4ccc(C(=O)NC5CCCC(Cn6ccnc6)C5)cc34)ccc2n1` (centres unmarked) [compound 108, N-[3-(1H-imidazol-1-ylmethyl)cyclohexyl]-3-(2-methyl-2H-indazol-5-yl)-1H-indazole-5-carboxamide] returned a 50% inhibitory concentration (IC50) of 29.3 nM.
Under `Cc1cc(-c2n[nH]c3ccc(C(=O)N[C@@H]4CCC[C@@](O)(Cn5c(C(F)(F)F)nc6ccccc65)C4)cc23)ccn1` [compound 68] stands 821 nM; under `Cc1cc(-c2n[nH]c3ccc(C(=O)NC4CCCC(O)(C(O)c5ccccc5)C4)cc23)ccn1` (centres unmarked) [compound 50, N-[3-hydroxy-3-(hydroxyphenylmethyl)cyclohex-yl]-3-(2-methyl-4-pyridinyl)-1H-indazole-5-carboxamide (diasterimer 2)], 47.5 nM.
To `Cc1cc(-c2n[nH]c3ccc(C(=O)N[C@H]4CCC[C@@](O)(Cn5cc(C#N)c6ccccc65)C4)cc23)ccn1` (relative stereo) [compound 95, N-[trans-3-[(3-cyano-1H-indol-1-yl)methyl]-3-hydroxycyclohexyl]-3-(2-methyl-4-pyridinyl)-1H-indazole-5-carboxamide] belongs 1000 nM; to `Cc1cc(-c2n[nH]c3ccc(C(=O)N[C@H]4CCC[C@@](O)(Cn5cc6c(F)cccc6n5)C4)cc23)ccn1` (relative stereo) [compound 97, N-[trans-3-[(4-fluoro-2H-indazol-2-yl)methyl]-3-hydroxycyclohexyl]-3-(2-methyl-4-pyridinyl)-1H-indazole-5-carboxamide], 1000 nM.
For `Cc1cc(-c2n[nH]c3ccc(C(=O)NC4CCCC(O)(Cc5c(F)cccc5F)C4)cc23)ccn1` (single isomer, unassigned) [compound 7, N-[3-[(2,6-difluorophenyl)methyl]-3-hydroxycyclohexyl]-3-(2-methyl-4-pyridinyl)-1H-indazole-5-carboxamide], inhibition was half-maximal at 15.2 nM (IC50).
To `Cc1cc(-c2n[nH]c3ccc(C(=O)NN4CCCC(Oc5ccccc5Cl)C4)cc23)ccn1` (centres unmarked) [compound 36, N-[3-(2-chlorophenoxy)-1-piperidinyl]-3-(2-methyl-4-pyridinyl)-1H-indazole-5-carboxamide] belongs 40.4 nM; to `Cc1cc(-c2n[nH]c3ccc(C(=O)NN4CCCC4CCc4ccccc4)cc23)ccn1` (centres unmarked) [compound 145, 3-(2-methyl-4-pyridinyl)-N-[2-(2-phenylethyl)-1-pynolidinyl]-1H-indazole-5-carboxamide], 28.7 nM.
In the case of `Cc1cc(-c2n[nH]c3ccc(C(=O)N[C@@H]4CCC[C@](O)(Cn5ncc6ccccc65)C4)cc23)ccn1` [compound 65, N-[3(R)-hydroxy-3-(1H-indazol-1-ylmethyl)-1(R)-cyclohexyl]-3-(2-methyl-4-pyridinyl)-1H-indazole-5-carboxamide], the 50% inhibitory concentration (IC50) was found to be 988 nM.
Regarding `Cc1cc(-c2n[nH]c3ccc(C(=O)NC4CCCC(Cn5ncc6cnccc65)C4)cc23)ccn1` (centres unmarked) [compound 119, 3-(2-methyl-4-pyridinyl)-N-[3-(1H-pyrazolo[4,3-c]pyridin-1-ylmethyl)cyclohexyl]-1H-indazole-5-carboxamide], half-maximal inhibition (IC50) was put at 530 nM.
Compound `Cc1cc(-c2n[nH]c3ccc(C(=O)NC4CCCC(Cc5ccccc5F)(C(=O)O)C4)cc23)ccn1` (mixture of isomers) [compound 131, cis/trans-1-[(2-fluorophenyl)methyl]-3-[[[3-(2-methyl-4-pyridinyl)-1H-indazol-5-yl]carbonyl]amino]cyclo-hexanecarboxylic acid] yielded a half-inhibitory concentration (IC50) of 1000 nM.
On to `Cn1cc2cc(-c3n[nH]c4ccc(C(=O)N[C@@H]5CCC[C@](O)(Cn6cnc7ccccc76)C5)cc34)ccc2n1` (relative stereo) [compound 61, N-[trans-3-(1H-benzimidazol-1-ylmethyl)-3-hydroxycyclohexyl]-3-(2-methyl-2H-indazol-5-yl)-1H-indazole-5-carboxamide], for which the 50% inhibitory concentration (IC50) was found to be 19.3 nM.
For `Cc1cc(-c2n[nH]c3ccc(C(=O)NC4CCCC(Cn5cc6cc(F)ccc6n5)C4)cc23)ccn1` (mixture of isomers) [compound 124, N-[cis/trans-3-[(5-fluoro-2H-indazol-2-yl)methyl]cyclohexyl]-3-(2-methyl-4-pyridinyl)-1H-indazole-5-carboxamide], half-maximal inhibition (IC50) was put at 264 nM.
For `Cn1cc2cc(-c3n[nH]c4ccc(C(=O)N[C@@H]5CCC[C@](O)(Cn6ccnc6)C5)cc34)ccc2n1` (relative stereo) [compound 58, N-[trans-3-hydroxy-3-(1H-imidazol-1-ylmethyl)cyclohexyl]-3-(2-methyl-2H-indazol-5-yl)-1H-indazole-5-carboxamide], the IC50 amounted to 62 nM.
Compound `Cc1cc(-c2n[nH]c3ccc(C(=O)NC4CCCC(CO)(Cc5c(F)cccc5F)C4)cc23)ccn1` (centres unmarked) [compound 137, N-[3-[(2,6-difluorophenyl)methyl]-3-(hydroxymethyl)cyclohexyl]-3-(2-methyl-4-pyridinyl)-1H-indazole-5-carboxamide] came in with an IC50 of 445 nM.
